Active and inactive are the calls of the source. No cut-off for these calls is given here.
What was measured:
[1] = test system: Tribolium castaneum; assay: Antifeedant activity against Tribolium castaneum assessed as feeding deterrence index at 200 ug/disk after 5 days by flour disk assay; format: functional, organism-based
[2] = test system: Tribolium castaneum; assay: Antifeedant activity against Tribolium castaneum assessed as efficiency of conversion of ingested food at 200 ug/disk after 5 days by flour disk assay; format: functional, Instar larval stage
[3] = test system: Tribolium castaneum; assay: Antifeedant activity against Tribolium castaneum assessed as relative consumption rate at 200 ug/disk after 5 days by flour disk assay; format: functional
[4] = test system: Tribolium castaneum; assay: Antifeedant activity against Tribolium castaneum assessed as relative growth rate at 200 ug/disk after 5 days by flour disk assay; format: functional
[5] = test system: Tribolium castaneum; assay: Insecticidal activity against Tribolium castaneum fifth instar larvae assessed as mortality at 60 ug/uL, treated topically; format: functional
[6] = test system: Tribolium castaneum; assay: Insecticidal activity against Tribolium castaneum fifth instar larvae assessed as pupal stage duration at 60 ug/uL, treated topically; format: functional
[7] = target: DNA polymerase I, thermostable (Thermus aquaticus, UniProt P19821); assay: Inhibition of Thermus aquaticus-DNA polymerase by PCR analysis
[8] = target: DNA polymerase I, thermostable (Thermus aquaticus) (UniProt P19821); assay: Inhibition of Thermus aquaticus-DNA polymerase at 500 uM by PCR analysis
DNA polymerase I, thermostable (Thermus aquaticus), sequence (P19821 whole entry): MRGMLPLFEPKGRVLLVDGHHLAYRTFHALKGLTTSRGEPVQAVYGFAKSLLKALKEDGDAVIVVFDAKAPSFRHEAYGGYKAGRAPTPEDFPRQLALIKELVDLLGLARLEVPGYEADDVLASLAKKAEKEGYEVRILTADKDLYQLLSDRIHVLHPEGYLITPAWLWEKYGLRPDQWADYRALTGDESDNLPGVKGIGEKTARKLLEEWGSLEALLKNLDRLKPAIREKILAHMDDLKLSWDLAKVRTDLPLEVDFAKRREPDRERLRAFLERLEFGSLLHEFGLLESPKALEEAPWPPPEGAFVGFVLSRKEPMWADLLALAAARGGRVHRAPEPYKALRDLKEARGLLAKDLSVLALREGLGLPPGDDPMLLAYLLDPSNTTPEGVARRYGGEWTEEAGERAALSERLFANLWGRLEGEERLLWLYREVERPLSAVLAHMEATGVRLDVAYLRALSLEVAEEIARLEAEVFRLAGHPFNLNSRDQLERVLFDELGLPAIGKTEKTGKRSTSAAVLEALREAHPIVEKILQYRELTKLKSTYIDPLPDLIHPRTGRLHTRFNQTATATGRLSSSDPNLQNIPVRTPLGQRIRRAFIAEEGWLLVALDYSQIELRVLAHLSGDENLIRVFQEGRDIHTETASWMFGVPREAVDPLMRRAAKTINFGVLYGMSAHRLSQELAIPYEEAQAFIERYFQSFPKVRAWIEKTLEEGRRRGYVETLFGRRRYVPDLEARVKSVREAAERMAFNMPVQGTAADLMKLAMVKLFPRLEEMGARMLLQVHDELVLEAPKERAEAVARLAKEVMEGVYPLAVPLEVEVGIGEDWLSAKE

DNA polymerase I, thermostable, sequence (P19821 whole entry): as above

| Activity [8] | Compound | Activity [1] | Activity [2] [%] | Activity [3] [mg/mg/day] | Activity [4] [mg/mg/day] | Activity [5] [%] | Activity [6] [days] | IC50 [7] [µM] |
| --- | --- | --- | --- | --- | --- | --- | --- | --- |
| – | CC(=O)O[C@@]1(C)C[C@@H](O)[C@]2(O)C=CO[C@@H](O[C@@H]3O[C@H](CO)[C@@H](O)[C@H](O)[C@H]3O)[C@@H]21 | inactive | -8.908 | 0.058 | -0.004 | 56.6 | 11.3 | 214 |
| inactive | CC(=O)OC[C@H]1O[C@@H](O[C@@H]2OC=C[C@H]3[C@H](OC(C)=O)[C@@H]4O[C@]4(COC(C)=O)[C@@H]23)[C@H](OC(C)=O)[C@@H](OC(C)=O)[C@@H]1OC(C)=O | – | – | – | – | – | – | – |
| inactive | CC(=O)O[C@@H]1[C@@H](OC(C)=O)[C@H](O[C@@H]2OC=C[C@H]3[C@H](OC(C)=O)[C@@H]4O[C@]4(CO[Si](c4ccccc4)(c4ccccc4)C(C)(C)C)[C@@H]23)O[C@H](CO[Si](c2ccccc2)(c2ccccc2)C(C)(C)C)[C@H]1OC(C)=O | – | – | – | – | – | – | – |
| inactive | CCCCCCCC/C=C\CCCCCCCCOC[C@H]1O[C@@H](O[C@@H]2OC=C[C@H]3[C@H](O)[C@@H]4O[C@]4(COCCCCCCCC/C=C\CCCCCCCC)[C@@H]23)[C@H](O)[C@@H](O)[C@@H]1O | – | – | – | – | – | – | – |
| inactive | OC[C@H]1O[C@@H](O[C@@H]2OCC[C@H]3[C@H](O)[C@@H]4O[C@]4(CO)[C@@H]23)[C@H](O)[C@@H](O)[C@@H]1O | – | – | – | – | – | – | – |
| – | OC[C@H]1O[C@@H](O[C@@H]2OC=C[C@H]3[C@H](O)[C@@H]4O[C@]4(CO)[C@@H]23)[C@H](O)[C@@H](O)[C@@H]1O [CATALPOL] | inactive | -66.101 | 0.017 | -0.01 | 73.3 | 8.2 | 47.8 |
| – | C[C@]1(O)C[C@@H](O)[C@]2(O)C=CO[C@@H](O[C@@H]3O[C@H](CO)[C@@H](O)[C@H](O)[C@H]3O)[C@@H]21 [HARPAGIDE] | – | – | – | – | – | – | 417 |
| – | C[C@]1(O)C[C@@H](O)[C@]2(O)C=CO[C@@H](O[C@H]3O[C@H](CO)[C@@H](O)[C@H](O)[C@H]3O)[C@@H]21 [HARPAGIDE] | inactive | -30.729 | 0.019 | -0.003 | 60 | 12.1 | – |
